Article PMC13261308, “Mapping Functionally Relevant Tractable Lysines of Challenging Protein Targets by Covalent Fragment Screening” (Chembiochem, 2026)

Key:
[1] = HPLC-MS-based stability (blank, without N-α-acetyl-lysine) in BBS buffer pH 10.2; settings: pH 10.2 buffer without N-α-acetyl-lysine
Procedure: (§1) 1.2.1 HPLC-MS-based N-α-acetyl-lysine reactivity assay3
(§2) HPLC-MS measurements were performed using a Shimadzu LCMS-2020 device equipped with a positive–negative double ion source (DUIS±) and a quadrupole MS analyzer in the range of m/z 50–1000. The sample was eluted with gradient elution using eluent A (0.1% HCOOH in H2O) and eluent B (0.1% HCOOH in MeCN). The column temperature was always kept at 30 °C; the injection volume was 10 µL, and the flow rate was set to 1.5 mL/min. A Reprospher C18 (5 μm, 100 mm × 3 mm) column was used along with the following gradient. The in itial condition was 0% B eluent, followed by a linear gradient to 100% B eluent by 2 min; from 2 to […]
(§3) was restored and retained until 5 min.
(§4) For the reactivity and stability assay, in a glass LC-MS vial the internal standard (indoprofen or papaverine or 1,4-dicyanobenzene, 50 µL, 2 mM in acetonitrile) and the 100 mM BBS buffer […]
(§5) of reactivity or stability, respectively). Finally, to this mixture the corresponding electrophile was added (50 µl, 20 mM in acetonitrile) right before the measurement. The vial was mixed, then analyzed by HPLC-MS (10 µL injection volume) at intervals of approximately 60 min (0-4 h, 6 […]
(§6) Final volume was 1 mL. In the case of highly reactive compounds, the measurement was done within 1 h, monitored every 5 minutes. The AUC (area under the […]
(§7) corrected with the internal standard. The fragments’ AUC values were subjected to ordinary least-squares (OLS) linear regression, and to compute the important parameters (kinetic rate constant and half-life time), an Excel sheet was applied. The data are expressed as means of duplicate determination. The kinetic rate constant for the degradation and corrected N-α-acetyl-lysine reactivity were calculated as follows. The reaction half-life for pseudo-first-order reactions (t1/2) is ln 2/k, where k is the reaction rate. In the case of competing reactions (reaction with N-α-acetyl-lysine and degradation), the apparent reaction rate is kLys = kBlank + kBinding.
(§8) When half-lives are measured experimentally, t1/2(Lys) = ln 2/(kLys) = ln 2/(kBlank + kBinding). In our case, the corrected kBlank and kLys (regarding blank and N-α-acetyl lysine-containing samples, respectively) can be calculated by linear regression of the measured kinetic data points. […]

[2] = HPLC-MS-based N-α-acetyl-lysine reactivity assay; settings: pH 10.2, monitored for 24 h
Procedure: as §1, §2, §3, §4, §5, §6, §7, §8

SMILES	Stability t1/2, pH 10.2 [1]	Lys-reactivity t1/2, pH 10.2 [2]
COc1c(Nc2cc(C(F)(F)F)cc(C(F)(F)F)c2)c(=O)c1=O [compound 18]	12.17 h	–
CC(=O)N(C(=O)c1cc(C(F)(F)F)cc(C(F)(F)F)c1)c1ccccc1 [compound 13]	–	0.27 h
C#Cc1ccc(C(F)(F)F)cc1C=O [compound 32]	15.36 h	0.23 h
Cc1ccc(S(=O)(=O)N(CC#N)C(=O)Cc2cc(C(F)(F)F)cc(C(F)(F)F)c2)cc1 [compound 8]	0.17 h	0.26 h
FC(F)(F)c1cc(Nc2nc(Cl)nc(Cl)n2)cc(C(F)(F)F)c1 [compound 19]	0.97 h	–
O=Cc1c(O)cc(C(F)(F)F)cc1C(F)(F)F [compound 26]	246.76 h	40.93 h
O=Cc1cc2ccccc2cc1C=O [compound 31, 2,3‐naphthalene‐dicarboxaldehyde]	11.69 h	–
FC(F)=Cc1cc(C(F)(F)F)cc(C(F)(F)F)c1 [compound 17]	3.32 h	–
O=S(=O)(F)Oc1cc(C(F)(F)F)cc(C(F)(F)F)c1 [compound 4]	4.94 h	–
O=S(=O)(On1nnc2ccccc21)c1cc(C(F)(F)F)cc(C(F)(F)F)c1 [compound 6]	0.35 h	–
